# Assay results as given in patent publication US4056615A, “Lucknomycin and process for producing same” (U C B Societe Anonyme, priority 1975, dated 1977).
# “Also recorded” adds a separate entry of the source. Where two headings read alike, the source gives them in different places.
# How the values were obtained:
# Trichomoras vaginalis = assay: MIC, complete inhibition of growth, Trichomonas vaginalis; type: cell-based
# Description: (§1) Lucknomycin is introduced at different dilutions into a peptonedextrose medium inoculated with the organism which is to be tested. After incubation for from 2 to 5 days at 28° C., the number of microgrammes of antibiotic per milliliter of medium is determined which must be used to obtain complete inhibition of growth (MIC) of the organism in question. In order to better point out the antifungal activity of Lucknomycin, it is compared with that of other known antifungal antibiotics.
# Aspergillus niger = assay: MIC, complete inhibition of growth, Aspergillus niger; type: cell-based
# Description: as §1
# Candida albicans 11651 = assay: MIC, complete inhibition of growth, Candida albicans 11651; type: cell-based
# Description: as §1
# Escherichia coli = assay: Antibacterial spectrum, Escherichia coli; type: cell-based; conditions: 10 mcg/ml, one day at 37° C.
# Description: as §1
# (§2) The experimental conditions are the same as for the determination of the fungal spectrum, except that the incubation time is one day at 37° C.
# Candida krusei = assay: MIC, complete inhibition of growth, Candida krusei; type: cell-based
# Description: as §1
# [1] = tested on: Trichophyton mentagrophytes; assay: MIC, complete inhibition of growth, Trichophyton mentagrophytes; type: cell-based; conditions: for MIC: peptone-dextrose medium, 2 to 5 days at 28° C.
# Description: as §1
# Streptococcus faecalis = assay: Antibacterial spectrum, Streptococcus faecalis; type: cell-based; conditions: 10 mcg/ml, one day at 37° C.
# Description: as §1, §2
# Solubility = type: physicochemical
# Trichophyton acuminatum = assay: MIC, complete inhibition of growth, Trichophyton acuminatum; type: cell-based; conditions: for MIC: peptone-dextrose medium, 2 to 5 days at 28° C.
# Description: as §1
# Trichomonas vaginalis [2] = assay: Anti-Trichomonas vaginalis activity, subcutaneous Trichomonas vaginalis abscess in mice; type: in vivo; conditions: subcutaneous injections at the level of the abscess
# Text: This test is made in mice on a subcutaneous Trichomonas vaginalis abscess. Subcutaneous injections at the level of the abscess of a suspension (or solution) of the following products at various concentrations are used to determine the ED50.
# Candida tropicalis = assay: MIC, complete inhibition of growth, Candida tropicalis; type: cell-based
# Description: as §1
# Staphylococcus aureus = assay: Antibacterial spectrum, Staphylococcus aureus; type: cell-based; conditions: 10 mcg/ml, one day at 37° C.
# Description: as §1, §2
# Candida albicans = assay: Anti-Candida albicans activity, experimental Candida albicans vaginitis in female rats; type: in vivo; conditions: per tablet: lucknomycin 5 mg., clotrimazole 20 mg., nystatin 4 mg.
# Text: The test is made in female rats on experimental Candida albicans vaginitis.
# Klebsiella pneumoniae = assay: Antibacterial spectrum, Klebsiella pneumoniae; type: cell-based; conditions: 10 mcg/ml, one day at 37° C.
# Description: as §1, §2
# mice = assay: Toxicity, lethal dose LD50 in mice; type: in vivo
# Text: Lethal dose LD50 in mice in mg./kg. body weight:
# Trichomonas vaginalis [3] = assay: Antiprotozoal activity, killing of a culture in full growth of Trichomonas vaginalis; type: cell-based; conditions: 0.5 mcg./ml.; within about 30 minutes
# Description: A concentration of 0.5 mcg./ml. of the antibiotic kills 50% of individuals of a culture in full growth of Trichomonas vaginalis within a period of about 30 minutes.
# [4] = tested on: Lactobacillus acidophilus; assay: Antibacterial spectrum, Lactobacillus acidophilus; type: cell-based; conditions: 10 mcg/ml, one day at 37° C.
# Description: as §1, §2
# Proteus mirabilis = assay: Antibacterial spectrum, Proteus mirabilis; type: cell-based; conditions: 10 mcg/ml, one day at 37° C.
# Description: as §1, §2
# Pseudomonas aeruginosa = assay: Antibacterial spectrum, Pseudomonas aeruginosa; type: cell-based; conditions: 10 mcg/ml, one day at 37° C.
# Description: as §1, §2
# [5] = peptone-dextrose medium, 2 to 5 days at 28° C.
# [6] = Candida albicans 11651, peptone-dextrose medium, 2 to 5 days at 28° C.
# [7] = peptone-dextrose medium, 2 to 5 days at 28° C., read-out: MIC
molecule,measurement,setting,value
C[C@@H]1[C@H](O)[C@@H](C)/C=C/C=C/C=C/C=C/C=C/C=C/C=C/[C@H](O[C@@H]2O[C@H](C)[C@@H](O)[C@H](N)[C@@H]2O)C[C@@H]2O[C@](O)(C[C@@H](O)C[C@@H](O)[C@H](O)CC[C@@H](O)C[C@@H](O)CC(=O)O[C@H]1C)C[C@H](O)[C@H]2C(=O)O [Amphotericin B],MIC,Trichomoras vaginalis,> 10 mg/L
same,MIC,Aspergillus niger,0.6 mg/L
same,MIC,"Candida albicans 11651; Candida albicans, 11651",1.25 mg/L
CNc1ccc(C(=O)CC(O)C2C/C=C/C=C/C=C/C=C/C=C/C=C/C=C/C(OC3OC(C)C(O)C(N)C3O)CC(O)C(C(=O)O)C(O)CC(O)CC(O)CC(O)CC(O)CC(O)CC(O)CC(O)CC(=O)O2)cc1 (centres unmarked) [Lucknomycin],inhibiting activity,Escherichia coli,inactive; also recorded: does not exert an inhibiting activity
same,activity (in words),Trichomoras vaginalis,effective
same,MIC,Trichomoras vaginalis; [5],< 0.05 mg/L
same,activity against growth (in words),Candida krusei,effective
same,MIC,Candida krusei; [5],0.2 to 0.4 mg/L
same,activity (in words),[1],moderately active
same,MIC,[1],25 mg/L
same,inhibiting activity,Streptococcus faecalis,inactive; also recorded: does not exert an inhibiting activity
same,Solubility,"Solubility; in 60% methanol, concentrated ethanol (ethanol) and isopropanol",less soluble
same,Solubility,"Solubility; in benzene, acetone, water, chloroform, absolute ethanol, cyclohexane, ethyl acetate and diethyl ether",insoluble
same,Solubility,"Solubility; in pyridine, dimethylformamide and dimethylacetamide",soluble
same,activity (in words),Trichophyton acuminatum,moderately active
same,MIC,Trichophyton acuminatum,12.5 mg/L
same,ED50 on Trichomonas vaginalis,Trichomonas vaginalis [2],12 mg/L
same,activity against growth (in words),Candida tropicalis,effective
same,MIC,Candida tropicalis; [5],0.1 to 0.2 mg/L
same,inhibiting activity,Staphylococcus aureus,inactive; also recorded: does not exert an inhibiting activity
same,Number of cured rats/infested rats,Candida albicans; after 4 administrations,14/16
same,Number of cured rats/infested rats,Candida albicans; after 8 administrations,13/13
same,Number of cured rats/infested rats,Candida albicans; after 12 administrations,12/12
same,inhibiting activity,Klebsiella pneumoniae,inactive; also recorded: does not exert an inhibiting activity
same,LD50,mice; intraperitoneal,5-10 mg./kg. body weight
same,LD50,mice; intravenous,10-20 mg./kg. body weight
same,LD50,mice; oral,> 800 mg./kg. body weight
same,LD50,mice; subcutaneous,> 800 mg./kg. body weight
same,activity against growth (in words),Aspergillus niger,effective
same,MIC,Aspergillus niger; [5],0.5 mg/L
same,individuals of a culture in full growth killed,Trichomonas vaginalis [3],50%
same,inhibiting activity,[4],inactive; also recorded: does not exert an inhibiting activity
same,inhibiting activity,Proteus mirabilis,inactive; also recorded: does not exert an inhibiting activity
same,inhibiting activity,Pseudomonas aeruginosa,inactive; also recorded: does not exert an inhibiting activity
same,activity against growth (in words),Candida albicans 11651; Candida albicans,effective
same,MIC,Candida albicans 11651; [6],0.1 to 0.2 mg/L
Cc1ncc([N+](=O)[O-])n1CCO [Metronidazole],MIC,Trichomoras vaginalis; [7],0.5 mg/L
"C[C@@H]1[C@H](O)[C@@H](C)/C=C/C=C/CC/C=C/C=C/C=C/C=C/C(O[C@H]2O[C@H](C)[C@@H](O)[C@H](N)[C@@H]2O)CC2O[C@](O)(CC(O)C(O)CCC(O)CC(O)CC(O)CC(=O)O[C@H]1C)CC(O)C2C(=O)O (some centres unmarked) [Nystatin, nystatin]",MIC,Trichomoras vaginalis; [5],> 10 mg/L
same,MIC,[1],25 mg/L
same,MIC,Trichophyton acuminatum,25 mg/L
same,Number of cured rats/infested rats,Candida albicans; after 4 administrations,5/11
same,Number of cured rats/infested rats,Candida albicans; after 8 administrations,8/11
same,Number of cured rats/infested rats,Candida albicans; after 12 administrations,9/11
same,MIC,Aspergillus niger; [5],5 mg/L
same,MIC,Candida albicans 11651; [6],2.5 mg/L
C[C@@H]1C/C=C/C=C/C=C/C=C/[C@H](O[C@@H]2O[C@H](C)[C@@H](O)[C@H](N)[C@@H]2O)C[C@@H]2O[C@](O)(C[C@@H](O)C[C@H]3O[C@@H]3/C=C/C(=O)O1)C[C@H](O)[C@H]2C(=O)O [Pimaricin],MIC,Trichomoras vaginalis; [7],> 10 mg/L
same,MIC,Aspergillus niger; [7],2.5 mg/L
same,MIC,"Candida albicans 11651; Candida albicans 11651, peptone-dextrose medium, 2 to 5 days at 28° C., read-out: MIC",5 mg/L
Clc1ccccc1C(c1ccccc1)(c1ccccc1)n1ccnc1 [clotrimazole],Number of cured rats/infested rats,Candida albicans; after 4 administrations,17/18
same,Number of cured rats/infested rats,Candida albicans; after 8 administrations,16/16
same,Number of cured rats/infested rats,Candida albicans; after 12 administrations,17/17
Candicidin,ED50 on Trichomonas vaginalis,Trichomonas vaginalis [2],24 mg/L
Trichomycin,ED50 on Trichomonas vaginalis,Trichomonas vaginalis [2],43 mg/L
